The values that follow come from patent US8604034B2, “Substituted imidazo[1,2-α]pyrrolo[1,2-d]pyrazines for treating respiratory syncytial virus (RSV) infections” (Biota Scientific Management Pty Ltd., priority 2010, dated 2013).

In this assay the test system is RSV A2. The experiment in a line: RSV antiviral cytopathic effect (CPE) assay. Format: cell-based. The following applies: human respiratory syncytial virus, HEp-2, 120 h, HEp2 cells infected with RSV A2 (moi ~0.01), 5 days, MTT readout. As to the method:
Compounds of the invention were tested for their antiviral activity against respiratory syncytial virus. Cytopathic effect (CPE) assays were performed essentially as described in the literature (see for example Watanabe et al, 1994, J. Virological Methods, 48:257). Serial dilutions of the test compounds were made in 96 well plates. HEp2 cells (1.0×10^4 cells/well) were infected with RSV at a low multiplicity of infection (e.g. RSV A2 at an moi of ˜0.01) and added to plates to assess antiviral activity. Uninfected HEp2 cells were used to assess compound cytotoxicity. Assays were incubated for 5 days at 37° C. in a 5% CO2 atmosphere. The extent of CPE was determined via metabolism of the vital dye 3-(4,5-dimethylthiaxol-2-yl)-2,5-diphenyltetrazolium bromide (MTT). MTT (1 mg/ml) was added to each well and plates incubated for 2 hours incubation at 37° C. Wells were aspirated, iso-propanol (200 μL) was added and absorbance values read at 540/650 nm. Compound concentrations that inhibited CPE by 50% (EC50) and developed cytotoxicity (CC50) were calculated using non-linear regression analysis.
Representative mean EC50 values obtained are also provided. In the inventors' experience, replicate EC50 values usually fall within three standard deviations of the mean.

Setting [1] is: read-out: Activity Range (RSV A2 EC50).
The mark [2] stands for this setting: mean EC50, read-out: RSV A2 EC50.

pEC50: −log10 of the molar value. Where two headings read alike, the source gives them in different places.

For the compound `COc1ccc(C23Cn4cc(-c5cccnc5)cc4C(=O)N2CCN3C(=O)c2conc2C)cc1` (centres unmarked) [Compound 83], the pEC50 was 7.00 to 7.30 under setting [1] and 6.92 under setting [2].
The matching figures for `COc1ccc(C23Cn4cc(-c5ccncc5)cc4C(=O)N2CCN3C(=O)c2conc2C)cc1` (centres unmarked) [Compound 84]: over 7.31 and 7.74.
With `O=C1c2cc(Br)cn2CC2(c3ccc(F)cc3)NCCN12` (centres unmarked) [Compound 85], the pEC50 under setting [1] is under 5.00.
For `Cc1ccc(C23Cn4cc(Br)cc4C(=O)N2CCN3)cc1` (centres unmarked) [Compound 86], under setting [1], the pEC50 was under 5.00.
For `COc1ccc(C23Cn4cc(-c5ccnn5C)cc4C(=O)N2CCN3C(=O)c2conc2C)cc1` (centres unmarked) [Compound 87], the pEC50 is, setting by setting: under setting [1], 7.00 to 7.30; under setting [2], 6.30.
Regarding `COc1ccc(C23Cn4cc(-c5cnn(C(C)C)c5)cc4C(=O)N2CCN3C(=O)c2conc2C)cc1` (centres unmarked) [Compound 88], the pEC50 by setting is: under setting [1], 7.00 to 7.30; under setting [2], 7.19.
The matching figures for `COc1ccc(C23Cn4cc(C#N)cc4C(=O)N2CCN3C(=O)c2conc2C)cc1` (centres unmarked) [Compound 89, 10a-(4-methoxyphenyl)-1-[(3-methyl-1,2-oxazol-4-yl)carbonyl]-5-oxo-2,3,10,10a-tetrahydro-1H,5H-imidazo[1,2-a]pyrrolo[1,2-d]pyrazine-7-carbonitrile]: 5.00 to 6.30 and 5.80.
In the same order, the values of `COc1ccc(C23Cn4cc(-c5cncnc5)cc4C(=O)N2CCN3C(=O)c2conc2C)cc1` (centres unmarked) [Compound 90] are 5.00 to 6.30 and 5.89.
In the case of `COc1ccc(C23Cn4cc(-c5cn(C)nc5C)cc4C(=O)N2CCN3C(=O)c2conc2C)cc1` (centres unmarked) [Compound 91], the pEC50 is, setting by setting: under setting [1], 6.30 to 7.00; under setting [2], 6.85.
As to `COc1ccc(C23Cn4cc(-c5cnccc5C)cc4C(=O)N2CCN3C(=O)c2conc2C)cc1` (centres unmarked) [Compound 92], under setting [1], the pEC50 was under 5.00.
Take `Cc1ccc(C23Cn4cc(-c5ccccn5)cc4C(=O)N2CCN3C(=O)c2conc2C)cc1` (centres unmarked) [Compound 93, 1-[(3-methyl-1,2-oxazol-4-yl)carbonyl]-10a-(4-methylphenyl)-7-(pyridin-2-yl)-2,3,10,10a-tetrahydro-1H,5H-imidazo[1,2-a]pyrrolo[1,2-d]pyrazin-5-one]: the pEC50 by setting is: under setting [1], over 7.31; under setting [2], 8.09.
In the same order, the values of `Cc1nocc1C(=O)N1CCN2C(=O)c3cc(-c4cccnc4)cn3CC12c1ccc(CO)cc1` (centres unmarked) [Compound 95, 10a-[4-(hydroxymethyl)phenyl]-1-[(3-methyl-1,2-oxazol-4-yl)carbonyl]-7-(pyridin-3-yl)-2,3,10,10a-tetrahydro-1H,5H-imidazo[1,2-a]pyrrolo[1,2-d]pyrazin-5-one] are 6.30 to 7.00 and 6.80.
In the same order, the values of `Cc1nocc1C(=O)N1CCN2C(=O)c3ccc(-c4cnn(C)c4)n3CC12c1ccc(F)cc1` (centres unmarked) [Compound 96] are 6.30 to 7.00 and 6.82.
For the compound `Cc1nocc1C(=O)N1CCN2C(=O)c3ccc(-c4cccnc4)n3CC12c1ccc(F)cc1` (centres unmarked) [Compound 97], the pEC50 runs as follows: under setting [1], 6.30 to 7.00; under setting [2], 6.34.
The matching figures for `Cc1nocc1C(=O)N1CCN2C(=O)c3cc(-c4cccnc4)cn3CC12c1ccc(F)cc1` (centres unmarked) [Compound 98]: 7.00 to 7.30 and 7.16.
For `Cc1nocc1C(=O)N1CCN2C(=O)c3ccc(-c4ccncc4)n3CC12c1ccc(F)cc1` (centres unmarked) [Compound 99], the pEC50 was 6.30 to 7.00 under setting [1] and 6.72 under setting [2].
For the compound `COc1ccc(C23Cn4cc(-c5ccc(C(=O)O)cc5)cc4C(=O)N2CCN3C(=O)c2conc2C)cc1` (centres unmarked) [Compound 100], the pEC50 under setting [1] was 5.00 to 6.30 and the pEC50 under setting [2] was 5.10.
As for `Cc1nocc1C(=O)N1CCN2C(=O)c3cccn3CC12c1cccnc1` (centres unmarked) [Compound 101, 1-[(3-methyl-1,2-oxazol-4-yl)carbonyl]-10a-(pyridin-3-yl)-2,3,10,10a-tetrahydro-1H,5H-imidazo[1,2-a]pyrrolo[1,2-d]pyrazin-5-one], the pEC50 under setting [1] is 5.00 to 6.30 and the pEC50 under setting [2] was 6.14.
Consider `O=C1c2cccn2CC2(c3cccnc3)NCCN12` (centres unmarked) [Compound 102, 10a-(pyridin-3-yl)-2,3,10,10a-tetrahydro-1H,5H-imidazo[1,2-a]pyrrolo[1,2-d]pyrazin-5-one], for which, under setting [1], the pEC50 was under 5.00.
`Cc1nocc1C(=O)N1CCN2C(=O)c3cccn3CC12c1ccccn1` (centres unmarked) [Compound 103, 1-[(3-methyl-1,2-oxazol-4-yl)carbonyl]-10a-(pyridin-2-yl)-2,3,10,10a-tetrahydro-1H,5H-imidazo[1,2-a]pyrrolo[1,2-d]pyrazin-5-one]: the pEC50 reads like this: under setting [1], 6.30 to 7.00; under setting [2], 6.42.
Take `Cc1ccc(C23Cn4cccc4C(=O)N2CCN3C(=O)c2conc2C)nc1` (centres unmarked) [Compound 104]: the pEC50 under setting [1] was over 7.31 and the pEC50 under setting [2] is 7.57.
The matching figures for `Cc1nocc1C(=O)N1CCN2C(=O)c3cccn3CC12c1ccc(C(F)(F)F)nc1` (centres unmarked) [Compound 105]: 6.30 to 7.00 and 6.89.
For `COc1ccc(C23Cn4c(C#N)ccc4C(=O)N2CCN3C(=O)c2conc2C)cc1` (centres unmarked) [Compound 106, 10a-(4-methoxyphenyl)-1-[(3-methyl-1,2-oxazol-4-yl)carbonyl]-5-oxo-2,3,10,10a-tetrahydro-1H,5H-imidazo[1,2-a]pyrrolo[1,2-d]pyrazine-8-carbonitrile], the pEC50 was over 7.31 under setting [1] and 8.39 under setting [2].
For `COc1ccc(C23Cn4c(C)ccc4C(=O)N2CCN3C(=O)c2conc2C)cc1` (centres unmarked) [Compound 107, 10a-(4-methoxyphenyl)-8-methyl-1-[(3-methyl-1,2-oxazol-4-yl)carbonyl]-2,3,10,10a-tetrahydro-1H,5H-imidazo[1,2-a]pyrrolo[1,2-d]pyrazin-5-one], the pEC50 was over 7.31 under setting [1] and 7.85 under setting [2].
In the case of `C#Cc1ccc2n1CC1(c3ccc(OC)cc3)N(C(=O)c3conc3C)CCN1C2=O` (centres unmarked) [Compound 108, 8-ethynyl-10a-(4-methoxyphenyl)-1-[(3-methyl-1,2-oxazol-4-yl)carbonyl]-2,3,10,10a-tetrahydro-1H,5H-imidazo[1,2-a]pyrrolo[1,2-d]pyrazin-5-one], the pEC50 runs as follows: under setting [1], over 7.31; under setting [2], 7.77.
`Cc1nocc1C(=O)N1CCN2C(=O)c3cccn3CC12c1ccc(OCCO)cc1` (centres unmarked) [Compound 109, 10a-[4-(2-hydroxyethoxy)phenyl]-1-[(3-methyl-1,2-oxazol-4-yl)carbonyl]-2,3,10,10a-tetrahydro-1H,5H-imidazo[1,2-a]pyrrolo[1,2-d]pyrazin-5-one]: the pEC50 was 6.30 to 7.00 under setting [1] and 6.52 under setting [2].
Take `Cc1nocc1C(=O)N1CCN2C(=O)c3cccn3CC12c1ccc(OCCN2CCOCC2)cc1` (centres unmarked) [Compound 110, 1-[(3-methyl-1,2-oxazol-4-yl)carbonyl]-10a-{4-[2-(morpholin-4-yl)ethoxy]phenyl}-2,3,10,10a-tetrahydro-1H,5H-imidazo[1,2-a]pyrrolo[1,2-d]pyrazin-5-one]: the pEC50 by setting is: under setting [1], 5.00 to 6.30; under setting [2], 6.17.
In the case of `COc1ccc(C23Cn4cc(N)cc4C(=O)N2CCN3C(=O)c2conc2C)cc1` (centres unmarked) [Compound 111, 7-amino-10a-(4-methoxyphenyl)-1-[(3-methyl-1,2-oxazol-4-yl)carbonyl]-2,3,10,10a-tetrahydro-1H,5H-imidazo[1,2-a]pyrrolo[1,2-d]pyrazin-5-one], the pEC50 under setting [1] is under 5.00 and the pEC50 under setting [2] was 4.80.
With `COc1ccc(C23Cn4cc(NC5CCCCC5)cc4C(=O)N2CCN3C(=O)c2conc2C)cc1` (centres unmarked) [Compound 112, 7-(cyclohexylamino)-10a-(4-methoxyphenyl)-1-[(3-methyl-1,2-oxazol-4-yl)carbonyl]-2,3,10,10a-tetrahydro-1H,5H-imidazo[1,2-a]pyrrolo[1,2-d]pyrazin-5-one], under setting [1], the pEC50 is under 5.00.
Take `COc1ccc(C23Cn4cc(-n5ccnn5)cc4C(=O)N2CCN3C(=O)c2conc2C)cc1` (centres unmarked) [Compound 113, 10a-(4-methoxyphenyl)-1-[(3-methyl-1,2-oxazol-4-yl)carbonyl]-7-(1H-1,2,3-triazol-1-yl)-2,3,10,10a-tetrahydro-1H,5H-imidazo[1,2-a]pyrrolo[1,2-d]pyrazin-5-one]: the pEC50 reads like this: under setting [1], 6.30 to 7.00; under setting [2], 6.49.
The matching figures for `Cc1cnc(C23Cn4cccc4C(=O)N2CCN3C(=O)c2conc2C)cn1` (centres unmarked) [Compound 114]: over 7.31 and 7.41.
As to `COc1ccc(C23Cn4cccc4C(=O)N2CCN3C(=O)c2conc2C)nc1` (centres unmarked) [Compound 115], the pEC50 by setting is: under setting [1], 6.30 to 7.00; under setting [2], 6.64.
The matching figures for `Cc1nocc1C(=O)N1CCN2C(=O)c3cccn3CC12c1ccc(C(F)(F)F)cn1` (centres unmarked) [Compound 116, 1-[(3-methyl-1,2-oxazol-4-yl)carbonyl]-10a-[5-(trifluoromethyl)pyridin-2-yl]-2,3,10,10a-tetrahydro-1H,5H-imidazo[1,2-a]pyrrolo[1,2-d]pyrazin-5-one]: 7.00 to 7.30 and 7.23.
With `Cc1ccc(C23Cn4cc(Br)cc4C(=O)N2CCN3C(=O)c2conc2C)nc1` (centres unmarked) [Compound 117], the pEC50 runs as follows: under setting [1], 5.00 to 6.30; under setting [2], 6.06.
As to `Cc1nocc1C(=O)N1CCN2C(=O)c3cccn3CC12c1cnn(C)c1` (centres unmarked) [Compound 118], the pEC50 is, setting by setting: under setting [1], 6.30 to 7.00; under setting [2], 6.49.
